Results published in ChEMBL document CHEMBL3352576, “Synthesis and antitumor activities of novel hybrid molecules containing 1,3,4-oxadiazole and 1,3,4-thiadiazole bearing Schiff base moiety” (Bioorg Med Chem Lett, 2014).

Key:
Type in all cases: functional, cell-based
MCF7 = assay: Antiproliferative activity against human MCF7 cells assessed as inhibition of cell proliferation by CCK8 assay
[1] = Antiproliferative activity against human SMMC7721 cells assessed as inhibition of cell proliferation by CCK8 assay; details: SMMC-7721
A549 = assay: Antiproliferative activity against human A549 cells assessed as inhibition of cell proliferation by CCK8 assay

Oc1ccccc1/C=N/c1nnc(SCc2nnc(-c3ccccc3Cl)o2)s1
IC50 (MCF7): 18.1 µM
IC50 [1]: 31.8 µM
IC50 (A549): 18.1 µM

Oc1ccccc1/C=N/c1nnc(SCc2nnc(-c3ccc(Br)cc3)o2)s1
IC50 (MCF7): 8.32 µM
IC50 [1]: 18 µM
IC50 (A549): 20 µM

O=c1[nH]cc(F)c(=O)[nH]1 [FLUOROURACIL]
IC50 [1]: 5.62 µM
IC50 (A549): 8.13 µM

O=[N+]([O-])c1cccc(-c2nnc(CSc3nnc(/N=C/c4ccccc4O)s3)o2)c1
IC50 (MCF7): 13.9 µM
IC50 [1]: 15.7 µM
IC50 (A549): 36.9 µM

Oc1ccccc1/C=N/c1nnc(SCc2nnc(-c3ccc(Cl)cc3)o2)s1
IC50 (MCF7): 7.55 µM
IC50 [1]: 2.84 µM
IC50 (A549): 30.1 µM

Cc1ccc(-c2nnc(CSc3nnc(/N=C/c4ccccc4O)s3)o2)cc1
IC50 (MCF7): 8.75 µM
IC50 [1]: 37.1 µM
IC50 (A549): 22 µM

COc1ccc(-c2nnc(CSc3nnc(/N=C/c4ccccc4O)s3)o2)cc1
IC50 (MCF7): 4.56 µM
IC50 [1]: 10 µM
IC50 (A549): 20.3 µM

Oc1ccccc1/C=N/c1nnc(SCc2nnc(-c3ccccc3Br)o2)s1
IC50 (MCF7): 9.14 µM
IC50 [1]: 6.78 µM
IC50 (A549): 7.15 µM

O=[N+]([O-])c1ccc(-c2nnc(CSc3nnc(/N=C/c4ccccc4O)s3)o2)cc1
IC50 (MCF7): 4.25 µM
IC50 [1]: 16.9 µM
IC50 (A549): 4.13 µM

Cc1cccc(-c2nnc(CSc3nnc(/N=C/c4ccccc4O)s3)o2)c1
IC50 (MCF7): 11.6 µM
IC50 [1]: 4.55 µM
IC50 (A549): 24.3 µM

Oc1ccccc1/C=N/c1nnc(SCc2nnc(-c3ccc(F)cc3)o2)s1
IC50 (MCF7): 15.6 µM
IC50 [1]: 13.1 µM
IC50 (A549): 20.1 µM

COc1cccc(-c2nnc(CSc3nnc(/N=C/c4ccccc4O)s3)o2)c1
IC50 (MCF7): 22 µM
IC50 [1]: 4.34 µM
IC50 (A549): 8.82 µM

COc1cc(-c2nnc(CSc3nnc(/N=C/c4ccccc4O)s3)o2)cc(OC)c1OC
IC50 (MCF7): 7.95 µM
IC50 [1]: 7.6 µM
IC50 (A549): 6.55 µM

Oc1ccccc1/C=N/c1nnc(SCc2nnc(-c3ccccc3)o2)s1
IC50 (MCF7): 9.76 µM
IC50 [1]: 7.1 µM
IC50 (A549): 4.11 µM

Cc1ccccc1-c1nnc(CSc2nnc(/N=C/c3ccccc3O)s2)o1
IC50 (MCF7): 9.36 µM
IC50 [1]: 15.5 µM
IC50 (A549): 7.85 µM
